The values that follow come from patent publication US20220274980A1, “PHARMACOLOGICAL INHIBITORS OF THE ENL YEATS DOMAIN” (priority 2019, published 2022).

The first assay has as its target T1, ENL(YEATS)-HiBiT (Homo sapiens, UniProt Q03111).
T1 sequence (Q03111 1-138 limits assumed): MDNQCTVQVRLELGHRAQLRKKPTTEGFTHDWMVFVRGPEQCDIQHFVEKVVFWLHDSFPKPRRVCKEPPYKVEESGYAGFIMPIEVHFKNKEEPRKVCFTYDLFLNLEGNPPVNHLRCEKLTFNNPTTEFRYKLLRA
Nature of the assay: cell-based.
Details: not given
In general, IC50 refers to the point on the concentration scale where inhibition reaches its midpoint. The low end stands for inhibition by little substance, the high end for a need for much substance. The compound `O=C(N[C@@H]1CCc2ccccc21)c1ccc2nc(-c3ccccc3)cn2c1` [Compound 74] showed an IC50 of 8.9 µM.
Regarding `O=C(NC1CC(O)C1)c1ccc2nc(-c3ccccc3)cn2c1` (stereo not drawn) [Compound 76], the IC50 worked out at 35.4 µM.
Same read-out and setting: the result for `COc1ccc(-c2cn3cc(C(=O)NC4CCC4)ccc3n2)cc1` [Compound 78] reads 7.88 µM; that for `O=C(NC1CC(CO)C1)c1ccc2nc(-c3ccccc3)cn2c1` (stereo not drawn) [Compound 85], 25.6 µM; that for `N#Cc1ccc(-c2cn3cc(C(=O)NC4CCC4)ccc3n2)cc1` [Compound 86], 2.51 µM.
Still for that read-out and setting: for `CC1CCCCN1CCNS(=O)(=O)Nc1cccc(-c2cn3cc(C(=O)NC4CCC4)ccc3n2)c1` (stereo not drawn) [Compound 96] the value was 7.75 µM.
Same read-out and setting: for `O=C(NC1CCC1)c1ccc2nc(-c3cccc(NS(=O)(=O)NCCN4CCC(F)(F)CC4)c3)cn2c1` [Compound 97] the value was 2.8 µM; for `O=C(NC1CCC1)c1ccc2nc(-c3cccc(NS(=O)(=O)NCC(=O)N4CCCCC4)c3)cn2c1` [Compound 98], 12 µM; for `O=C(NC1CCC1)c1ccc2nc(-c3cccc(NS(=O)(=O)NCCN4CCC(O)CC4)c3)cn2c1` [Compound 99], 0.742 µM.
In turn, `O=C(O)COC1CCN(CCC(=O)Nc2cccc(-c3cn4cc(C(=O)NC5CCC5)ccc4n3)c2)CC1` [Compound 111] displayed an IC50 of 6.14 µM.
On the same count and under the same terms, the result for `O=C(NC1CCC1O)c1ccc2nc(-c3ccccc3)cn2c1` (stereo not drawn) [Compound 116] reads 35 µM.
On the same count and under the same terms, the result for `C#CC1CC(NC(=O)c2ccc3nc(-c4ccccc4)cn3c2)C1` (stereo not drawn) [Compound 117] reads 19 µM; that for `O=C(NC1CC2(CC2)C1)c1ccc2nc(-c3ccccc3)cn2c1` [Compound 118], 7 µM; that for `COC[C@@H]1CC[C@H]1NC(=O)c1ccc2nc(-c3ccccc3)cn2c1` [Compound 121], 23 µM.
Same read-out and setting: for `C#C[C@H]1C[C@@H](NC(=O)c2ccc3nc(-c4ccccc4)cn3c2)C1` [Compound 122] the value was 19 µM.

A further assay has as its target T2, ENL YEATS domain (association with H3K27cr) (Homo sapiens, UniProt Q03111).
T2 sequence (Q03111 1-148): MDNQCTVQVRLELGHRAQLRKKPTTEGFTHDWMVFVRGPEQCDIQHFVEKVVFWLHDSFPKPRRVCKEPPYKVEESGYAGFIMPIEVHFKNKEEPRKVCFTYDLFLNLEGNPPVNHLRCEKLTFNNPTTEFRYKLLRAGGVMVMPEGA
The assay can be described thus: biochemical. Particulars: ENL (YEATS)-H3K27cr HTRF (IC50, μM), Table 1. The protocol: Protein Production. Double stranded DNA fragments encoding the protein sequence of ENL YEATS(1-148) were synthesized (IDT DNA) for assembly-based cloning into a modified expression vector backbone derived from pET21a (Novagen). The protein was fused to a StrepII-SUMO and 6×His tag on the amino and carboxy terminus, respectively. Transformed BL21(DE3) cells (New England Biolabs) were grown at 37° C. in 2×YT growth medium to an OD600 of 0.6. Protein expression was induced at 25° C. with the addition of isopropyl-β-D-thiogalactopyranoside (IPTG) to a final concentration of 0.4 mM. The culture was harvested by centrifugation following a 20-hour incubation and subsequently purified by immobilized metal affinity chromatography. Cells were resuspended 50 mM Tris-HCl pH 8.0, 300 mM NaCl, 10% glycerol, 10 mM imidazole, 1 mM DTT containing Complete EDTA-free protease inhibitor (Roche) and lysed by two passes through a MicroFluidizer at 10,000 psi. The lysate was clarified by centrifugation at 16,000 rpm for 30 minutes at 4° C. The supernatant was passed over NiNTA agarose (QIAGEN) and the protein was eluted in 50 mM Tris-HCl pH 8.0, 300 mM NaCl, 10% glycerol, 250 mM imidazole, 1 mM DTT. Fractions containing the ENL YEATS(1-148) fusion protein were buffer exchanged into 100 mM Tris-HCl pH 8.0, 150 mM NaCl, 1 mM EDTA, 1 mM DTT using PD10 desalting columns (GE Life Sciences). Ulp1 protease was added to cleave the StrepII-SUMO fusion and the reaction mixture was incubated overnight at 4° C. The cleavage reaction mixture was loaded onto a StrepTrap column (GE Life Sciences) and ENL YEATS(1-148) was recovered in the flow through. BRD4 BD1 was purchased from Cayman (Cat. No. 11720).
Homogenous time-resolved FRET (HTRF) histone-binding assays. Both HTRF assays were performed by combining recombinant protein and synthetic histone peptide in assay buffer (25 mM HEPES pH 7, 20 mM NaCl, 0.2% Pluronic F-127, and 0.05% BSA) with 1 nM LanthaScreen Eu-anti-His Tag antibody (ThermoFisher, Cat. No, PV5597) and 8.9 nM SureLight allophycocyanin-streptavidin (Perkin Elmer, APC-SA, Cat. No. CR130-100). ENL YEATS was used at 5 nM and BRD4 BD1 was used at 10 nM. ENL assays were performed with H3(13-32)K27cr (13.3 and 100 nM, respectively), custom synthesized at ABclonal (N-terminal biotin, C-terminal amide); BRD4 BD1 assay was performed with 13.3 nM tetra-acetylated H4 (BioVision, Cat. No. 7144-01). Once all reagents were combined (with or without peptide), 10 μL was dispensed per well into black 384-well low-volume plates (Corning, Cat. No. 3821) and drug was added by pin tool transfer (Biomek FX). Assays were incubated for 2 or more hours before measurement of HTRF signal on a PHERAstar plate reader (BMG Labtech; simultaneous dual emission; excitation=337 nm, emission 1=665 nm, emission 2=620 nm). HTRF signal (ratio of emission 1 to emission 2) from vehicle-treated wells (maximum signal) and no-peptide-control wells (minimum signal) were used to calculate percent inhibition for drug-treated wells.
In general terms: TR-FRET usually uses a lanthanide donor and a delayed reading to cut background.
In turn, `O=C(N[C@@H]1CCc2ccccc21)c1ccc2nc(-c3ccccc3)cn2c1` [Compound 74] showed an IC50 of 2.29 µM.
The same measure, in the same setting: the result for `O=C(NC1CC(O)C1)c1ccc2nc(-c3ccccc3)cn2c1` (stereo not drawn) [Compound 76] reads above 50 µM.
`COc1ccc(-c2cn3cc(C(=O)NC4CCC4)ccc3n2)cc1` [Compound 78] yielded an IC50 of 3.27 µM.
The same measure, in the same setting: for `O=C(NC1CC(CO)C1)c1ccc2nc(-c3ccccc3)cn2c1` (stereo not drawn) [Compound 85] the value was 21.3 µM.
Turning to `N#Cc1ccc(-c2cn3cc(C(=O)NC4CCC4)ccc3n2)cc1` [Compound 86], the IC50 was 1.3 µM.
The same measure, in the same setting: the result for `CC1CCCCN1CCNS(=O)(=O)Nc1cccc(-c2cn3cc(C(=O)NC4CCC4)ccc3n2)c1` (stereo not drawn) [Compound 96] reads 0.163 µM; that for `O=C(NC1CCC1)c1ccc2nc(-c3cccc(NS(=O)(=O)NCCN4CCC(F)(F)CC4)c3)cn2c1` [Compound 97], 0.206 µM; that for `O=C(NC1CCC1)c1ccc2nc(-c3cccc(NS(=O)(=O)NCC(=O)N4CCCCC4)c3)cn2c1` [Compound 98], 0.101 µM.
As to `O=C(NC1CCC1)c1ccc2nc(-c3cccc(NS(=O)(=O)NCCN4CCC(O)CC4)c3)cn2c1` [Compound 99], 0.05 µM corresponded to half-maximal inhibition (IC50).
On the same count and under the same terms, the result for `O=C(O)COC1CCN(CCC(=O)Nc2cccc(-c3cn4cc(C(=O)NC5CCC5)ccc4n3)c2)CC1` [Compound 111] reads 0.243 µM; that for `O=C(NC1CCC1O)c1ccc2nc(-c3ccccc3)cn2c1` (stereo not drawn) [Compound 116], 36 µM.
On the same count and under the same terms, for `C#CC1CC(NC(=O)c2ccc3nc(-c4ccccc4)cn3c2)C1` (stereo not drawn) [Compound 117] the value was 10 µM.
On the same count and under the same terms, for `O=C(NC1CC2(CC2)C1)c1ccc2nc(-c3ccccc3)cn2c1` [Compound 118] the value was 0.723 µM.
`COC[C@@H]1CC[C@H]1NC(=O)c1ccc2nc(-c3ccccc3)cn2c1` [Compound 121] displayed an IC50 of 13 µM.
On the same count and under the same terms, the result for `C#C[C@H]1C[C@@H](NC(=O)c2ccc3nc(-c4ccccc4)cn3c2)C1` [Compound 122] reads 6 µM.

Still in this assay, the particulars now being: ENL (YEATS)-H3K27cr HTRF (IC50, μM), Table 2.
Compound `O=C(N[C@@H]1CCc2ccccc21)c1ccc2nc(-c3ccccc3)cn2c1` [Compound 74] displayed an IC50 of 2.29 µM.
`O=C(NC1CC(O)C1)c1ccc2nc(-c3ccccc3)cn2c1` (stereo not drawn) [Compound 76] came in with an IC50 above 50 µM.
Same read-out and setting: the result for `COc1ccc(-c2cn3cc(C(=O)NC4CCC4)ccc3n2)cc1` [Compound 78] reads 3.27 µM.
On the same count and under the same terms, the result for `O=C(NC1CC(CO)C1)c1ccc2nc(-c3ccccc3)cn2c1` (stereo not drawn) [Compound 85] reads 21.3 µM; that for `N#Cc1ccc(-c2cn3cc(C(=O)NC4CCC4)ccc3n2)cc1` [Compound 86], 1.3 µM; that for `CC1CCCCN1CCNS(=O)(=O)Nc1cccc(-c2cn3cc(C(=O)NC4CCC4)ccc3n2)c1` (stereo not drawn) [Compound 96], 0.163 µM.
The compound `O=C(NC1CCC1)c1ccc2nc(-c3cccc(NS(=O)(=O)NCCN4CCC(F)(F)CC4)c3)cn2c1` [Compound 97] yielded an IC50 of 0.206 µM.
On the same count and under the same terms, for `O=C(NC1CCC1)c1ccc2nc(-c3cccc(NS(=O)(=O)NCC(=O)N4CCCCC4)c3)cn2c1` [Compound 98] the value was 0.101 µM; for `O=C(NC1CCC1)c1ccc2nc(-c3cccc(NS(=O)(=O)NCCN4CCC(O)CC4)c3)cn2c1` [Compound 99], 0.05 µM.
`O=C(O)COC1CCN(CCC(=O)Nc2cccc(-c3cn4cc(C(=O)NC5CCC5)ccc4n3)c2)CC1` [Compound 111] had an IC50 of 0.243 µM.
`O=C(NC1CCC1O)c1ccc2nc(-c3ccccc3)cn2c1` (stereo not drawn) [Compound 116] returned an IC50 of 36 µM.
Still for that read-out and setting: for `C#CC1CC(NC(=O)c2ccc3nc(-c4ccccc4)cn3c2)C1` (stereo not drawn) [Compound 117] the value was 10 µM.
Consider `O=C(NC1CC2(CC2)C1)c1ccc2nc(-c3ccccc3)cn2c1` [Compound 118], for which the IC50 came to 0.723 µM.
The same measure, in the same setting: for `COC[C@@H]1CC[C@H]1NC(=O)c1ccc2nc(-c3ccccc3)cn2c1` [Compound 121] the value was 13 µM; for `C#C[C@H]1C[C@@H](NC(=O)c2ccc3nc(-c4ccccc4)cn3c2)C1` [Compound 122], 6 µM.
